Earlier results as cited in the CATMoS acute toxicity set (Mansouri et al. 2021).
Where “and” joins values, the source holds several entries; their conditions need not be identical. Equal values may be shown once.

Experiment: rat acute oral toxicity
Details: in vivo
From the text: […]The data set underlying the modeling effort for this project was initially compiled by NICEATM and U.S. EPA’s CCTE. Briefly, LD50 data were collected from rat acute oral systemic toxicity tests, including limit tests, ranges/confidence intervals, and discrete LD50 values. The full data set included 21,200 LD50 entries for 15,688 substances. […] Data were reviewed to ensure that LD50 values with obvious errors in the extracted data such as unit conversion errors (e.g., comma and decimal separator misplacements) were either fixed or removed. After this review, 16,209 LD50 values remained. Many of the chemicals represented had multiple LD50 entries, requiring that a single representative value per Chemical Abstracts Service Registry Number (CASRN) identifier be defined to facilitate modeling efforts. Based on ATWG feedback and to define the representative LD50 as a protective value while accounting for the distribution across multiple LD50s, the median of the lowest quartile was computed using only discrete LD50 values (omitting limit test data and range and confidence interval data). A detailed summary of the data compilation is available online on the NICEATM webpage dedicated to the collaborative modeling project (NTP 2020).
[…][…] For categorical designations, limit test and range/confidence interval LD50 data were integrated wherever possible. As such, the number of chemicals with end point values/calls varies across the modeling end points (Table 3) based on whether chemicals had representative LD50 values and/or other data. If a chemical had both, the representative value was used to determine categorical calls rather than limit test data. Some data were useable only for certain end points and categories depending on the thresholds. For example, ranges that spanned multiple hazard categories were considered only for the binary (very toxic/nontoxic) end points and omitted from rendering a determination for hazard category assignment.
[…]The final data set comprising 11,992 chemicals was split into training and evaluation sets […], respectively. This process was performed semirandomly by ordering chemicals based on the five end points (categorical and continuous LD50 values) and partitioning every fourth record into the evaluation set accordingly. This approach was taken to ensure an equivalent distribution of the LD50 values and the different hazard categories between the training and the evaluation sets without supervised sampling of the chemicals based on structures (Figure 1A). The sources of the chemical structures were also kept equivalent between the two sets, with chemical structures obtained from DSSTox, being the highest quality, representing over 75% of each set (Figure 1B).

Point of comparison: O=C(c1ccccc1)c1ccc(O)cc1, LD50 12100 mg/kg. Against it:
- CCC1CC2CC3c4[nH]c5ccc(OC)cc5c4CCN(C2)C13 (centres undefined) — 25-fold lower, 482 mg/kg
- COC(=O)c1cc([N+](=O)[O-])ccc1Cl — 2.3-fold lower, 5360 mg/kg
- C/C=C/C(=O)OCC — 4-fold lower, 3000 mg/kg
- CCN(CC)C(=S)S — 12-fold lower, 1000 mg/kg
- O=C(NO)Nc1ccc(Cl)c(Cl)c1 — 6.5-fold lower, 1850 mg/kg
- C=CC(CCC(=O)O)OC(C)=O (centres undefined) — 22-fold lower, 543 mg/kg
- CCCCc1ccn[nH]1 — 24-fold lower, 509 mg/kg
- CCC(=O)OCC=Cc1ccccc1 — 3.6-fold lower, 3400 mg/kg
- OCc1ccccc1 — 9.8-fold lower, 1230 mg/kg
- COC(=O)C(=O)c1ccccc1 — 1.8-fold lower, 6800 mg/kg
- COC(=O)[C@@](C)(N)Cc1ccc(O)c(C)c1 — 8.6-fold lower, 1400 mg/kg
- O=C1CCCCCCCCCCCN1 — 5.2-fold lower, 2330 mg/kg
- CCN(CC)CCSC(=O)C(c1ccccc1)c1ccccc1 — 4.4-fold lower, 2720 mg/kg
- COP(N)(=S)Oc1ccccc1C(=O)OC(C)C (centres undefined) — 240-fold lower, 50 mg/kg
- FC(F)(F)c1nc2c(Br)c(Br)c(Br)c(Br)c2[nH]1 — 2400-fold lower, 5.02 mg/kg
- COc1ccc(C(=O)Nc2ccccc2CCC2CCCCN2C)cc1 (centres undefined) — 210-fold lower, 57 mg/kg
- O=C(O)c1ccc2c3c(ccc(C(=O)O)c13)C(=O)OC2=O — 3.4-fold lower, 3510 mg/kg
- ON=CC=NO — 100-fold lower, 119 mg/kg
- O=Cc1cccs1 — 13-fold lower, 915 mg/kg
- Nc1cccc(N(CCO)CCO)c1 — 49-fold lower, 246 mg/kg
- CC(=O)CC(C)(C)N(C)N=O — 5.8-fold lower, 2100 mg/kg
- O=CC(Cl)(Cl)Cl — 25-fold lower, 480 mg/kg
- CCOP(=O)(O)O — 7.6-fold lower, 1600 mg/kg
- CCOP(=S)(OCC)SC1CCSC1 (centres undefined) — 600-fold lower, 20 mg/kg
- CC(C(=O)O)c1ccc(C(=O)c2ccccc2)s1 (centres undefined) — 67-fold lower, 181 mg/kg
- Oc1ccc(C(O)CCNCCCSc2ccccc2)cc1 (centres undefined) — 19-fold lower, 650 mg/kg
- O=C(c1ccccc1)c1ccc(O)cc1O — within 1.5-fold, 8600 mg/kg
- CC(O)CN(CC(C)O)CC(C)O (centres undefined) — 2.6-fold lower, 4730 mg/kg
- Cc1ccc(S(=O)(=O)Cl)cc1 — 2.6-fold lower, 4680 mg/kg
- Cc1ccc(C(=O)C(C)CN2CCCCC2)cc1 (centres undefined) — 8.3-fold lower, 1450 mg/kg
- O=C(c1ccccc1)N1CCN=C1Nc1c(Cl)cccc1Cl — 180-fold lower, 68.1 mg/kg
- CCCCCCCCCCCCCO — within 1.5-fold, 17200 mg/kg
- SCCc1cnccn1 — 77-fold lower, 158 mg/kg
- CCOP(=S)(OCC)SC1CCC2C=CCC1S2 (centres undefined) — 86-fold lower, 140 mg/kg
- O=C(O)Cc1ccccc1 — 5.4-fold lower, 2250 mg/kg
- O=C(O)c1ccccc1Nc1c(Cl)cc(Cl)c2ccccc12 — within 1.5-fold, 8500 mg/kg
- CCN(CC)C(=O)CCl — 24-fold lower, 500 mg/kg
- C(=NCCCCCCN=Cc1ccco1)c1ccco1 — 25-fold lower, 490 mg/kg
- Cc1cccc(C)c1NC(=O)CC12CCCN1CCC2 — 47-fold lower, 255 mg/kg
- O=C(CF)OCCOC(=O)CF — 5500-fold lower, 2.2 mg/kg
- CC1=COC(C)(C=O)CC1 (centres undefined) — 4.9-fold lower, 2460 mg/kg
- Cl/C=C/C[N+]12CN3CN(CN(C3)C1)C2 — 24-fold lower, 500 mg/kg
- CCCCN(CCCC)CCCN — 15-fold lower, 820 mg/kg
- CC(C)(O)CCc1ccccc1 — 5.5-fold lower, 2200 mg/kg
- C=CCNC(=O)ON=C1SCOC1C (centres undefined) — 27-fold lower, 453 mg/kg
- N#Cc1c(Cl)cccc1Cl — 4.5-fold lower, 2710 mg/kg
- O=[N+]([O-])c1ccc(Cl)c2nc(C(F)(F)F)[nH]c12 — 1100-fold lower, 11.1 mg/kg
- NS(=O)(=O)c1cc2c(cc1Cl)N=CNS2(=O)=O — within 1.5-fold, 10000 mg/kg
- CCOC(=O)CC(C)(C)C(Cl)C=C(Cl)Cl (centres undefined) — 3.8-fold lower, 3170 mg/kg
- CCCCCCCCCCCCCCCCCC(=O)OC[C@@H](O)[C@H]1OC[C@H](O)[C@H]1O — 2.6-fold higher, 31000 mg/kg
- CC(C)NC(=O)N1CC(=O)N(c2cc(Cl)cc(Cl)c2)C1=O — 3.5-fold lower, 3500 mg/kg
- COCCC#N — 2.8-fold lower, 4390 mg/kg
- O=C(O)c1cc(-c2ccc(F)cc2F)ccc1O — 31-fold lower, 392 mg/kg
- COP(=S)(OC(C)C)SCN1C(=O)c2ccccc2C1=O (centres undefined) — 240-fold lower, 50 mg/kg
- COB(OC)OC — 2-fold lower, 6140 mg/kg
- COC(=O)c1c(Cl)c(Cl)c(C(=O)N(C)OC)c(Cl)c1Cl — 10-fold lower, 1170 mg/kg
- COC(=O)c1cccc(N=NN(C)C)c1 — 200-fold lower, 60 mg/kg
- CCCCN1CCCN=C1C(OCC)c1ccccc1 (centres undefined) — 55-fold lower, 220 mg/kg
- C[C@H]1C[C@H]2[C@@H]3CCC4=CC(=O)C=C[C@]4(C)[C@@]3(F)[C@@H](O)C[C@]2(C)[C@@]1(O)C(=O)COP(=O)(O)O — 6.4-fold lower, 1880 mg/kg
- O=C1CCc2ccccc2O1 — 8.3-fold lower, 1460 mg/kg
- O=C(CCCCC(=O)OC1CCCCC1)OC1CCCCC1 — within 1.5-fold, 16000 mg/kg
- CCCCC(CC)COP(=O)(OCC(CC)CCCC)OCC(CC)CCCC (centres undefined) — 3.1-fold higher, 37000 mg/kg

In the case of CC1NCCOC1c1ccccc1 (centres undefined), the LD50 is given as 370 mg/kg and 165 mg/kg.
